Structures are written as SMILES. pIC50: −log10 of the molar value. Values joined by “and” are separate entries in the source; they are usually repeats but may differ in a detail not shown here. Identical values can stand only once. Like-named read-outs stand apart in the source and are kept apart here.

Data set [1] has as its system HER2. The data set can be described thus: HER2 degradation in BT-474 cells (Example 3, Methods 1 and 2). Format: cell-based, human. Put shortly:
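BT-474 cells treated 24 h at 37 °C with 10-point 3-fold compound dilutions; HER2 read by in-cell immunofluorescence after paraformaldehyde fixation, signal normalized to DRAQ5 nuclear stain, EC50 from curve fit. Degradation also checked by western blot of cytosolic lysates against tubulin.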

The test system of data set [2] is HER2. Briefly: HER2 degradation assay with BT-474 cell line (Example 12, FACS). Format: cell-based, human.
The subject of the next data set is Human H3122 NSCLC cells. Briefly: Cell viability assay (CellTiter-Glo) in H3122 cells (Example 4). Format: cell-based. The conditions noted are these: NCI-H3122. On the procedure: Human H3122 NSCLC cells were obtained and grown in RPMI in the presence of fetal bovine serum (10%), 2 mM L-glutamine and antibiotics (100 IU/ml penicillin and 100 μg/ml streptomycin, Sigma Aldrich.) Cells were maintained at 37° C., 5% CO2 atmosphere.
Cell viability was measured using the CellTiter-Glo® assay (Promega). In brief, cells were plated in 96-well plates in triplicate at optimal seeding density (determined empirically) and incubated at 37° C., 5% CO2 atmosphere for 24 hr prior to the addition of drug or vehicle (0.3% DMSO) to the culture medium. At the end of the assay, CellTiter-Glo was added to the wells per manufacturer's recommendation, shaken for two minutes and incubated for 10 minutes at room temperature. Luminescence (0.1 sec) was measured with a Victor II microplate reader (Perkin Elmer) and the resulting data were used to calculate cell viability, normalized to vehicle control.
Cells as described above were treated with exemplary SDC-TRAPs and their viability determined as above as well. The following table illustrates the results.
Background: In ATP-based viability assays light output follows the ATP content of the culture.

The next data set relates to H 3211 NSLC cells. The data set can be described thus: IC50 of continuous and pulsed exposure (Examples 9 and 10). Format: cell-based.
Data set [3] in a line: Stability in cell culture media (Example 18). The following applies: for Media (5 μM) % Remaining 1 h (37° C.)§: data from single parent peak; for Media (5 μM) % Remaining 1 h (37° C.)*: sum of both peaks.
Description: 98 μL of DMEM+10% FBS, +1% P/S, +1.5 g/L sodium bicarbonate cell culture media was mixed with 2 μL of DMSO and aliquotted into 96-well plates at 250 μL per 0, 1, 2, and 18 hour time point.
3×50 μL media samples in 96 were held in 96-well plates at −80° C. until the last time point was extracted. 200 μL of methanol containing IS was added and mixed by vortex at 1500 rpm for 1.5 minutes at room temperature. The samples were centrifuged at 4400 rpm for 10 minutes at 8° C.
A short description of data set [4]: Artificial membrane permeability assay (PAMPA). The following applies: same protocol, second table. Background: The PAMPA barrier holds no transporters, so it reflects passive diffusion.
Description: Pre-coated PAMPA plates were warmed to room temperature for at least 30 minutes prior to adding assay components.
Stock solutions were prepared with the SDC-TRAP molecules to be tested. In order to make a working solution, either 50 μL of 100 μM Stock in DMSO+950 μL of PBS or 50 μL of 200 μM stock was added to 96 deep well plate, resulting in a 5 μM final concentration or a 10 μM final concentration, respectively. 3000 μL of the working solution containing each compound to be tested was added to the appropriate well of a donor PAMPA plate. 200 μL of PBS was added into the corresponding wells of an acceptor PAMPA plates.
The acceptor plate was lowered onto the donor plate and allowed to incubate for five hours. After five hours, a 50 μL aliquot was removed from each well of each plate and added into a new 96 deep-well plate.
100 μL of methanol containing an internal standard was added to each aliquot and analyzed by LC/MS.
In order to calculate the permeability for each SDC-TRAP molecule and the control molecules, the following formula was used:
Data set [5] is described as follows: Mouse plasma stability protocol, up to 1 h (Examples 16-18). The following applies: for % Remaining (1 h): % Remaining of parent after 1 h incubation in mouse plasma at 37° C. (10 μM); for % Remaining (1 h, 37° C.) / Mouse (10 μM) % Remaining 1 h (37° C.)§ / Mouse (10 μM) % Remaining 1 h (37° C.)*: mouse plasma; for Mouse (10 μM) % Remaining 1 h (37° C.)§: data from single parent peak; for Mouse (10 μM) % Remaining 1 h (37° C.)*: sum of both peaks.

For data set [6], the system named is human urinary bladder cancer cell line SW780. Briefly: Cytotoxicity assay (CellTiter-Glo, 72 h), SW780. Format: cell-based. The following applies: SW780, 72 h, read-out: Cytotoxicity (IC50, nM) SW-780.
Description: (§1) Cytotoxicity of SDC-TRAP molecules was determined in three cancer cell lines. […] 80 μL of CellTiter-Glo was added to each well, followed by room temperature incubation in the dark for 15 minutes. Cell was determined by luminescence. IC50 was calculated using XLfit™ software.
Data set [7] has as its system HCT-116 human colorectal xenografts. Briefly: Mouse xenograft efficacy in HCT-116 colon cancer model. The conditions noted are these: IV, Q7D×3, then drug-free period; SDC-TRAP-0063 200 and 100 mg/kg, SDC-TRAP-0046 94 mg/kg, irinotecan 67 mg/kg, SYN-01 100 mg/kg.
Description: The cells were maintained in vitro as a monolayer culture in McCoy's 5a Medium. Fetal bovine serum was then be added to the medium. The final concentration of fetal bovine serum was 10%. Cells were cultured at 37° C. and 5% CO2. The tumor cells were routinely sub-cultured twice weekly by trypsin-EDTA treatment. Cells in an exponential growth phase were harvested and counted for tumor inoculation.
100 18-22 g, 5-7 week old, female BALB/cA nude mice were inoculated with the HCT 116 cells (2.0×10^6, 1:1 with Matrigel) subcutaneously on the back of each animal (0.1 mL/mouse). When the average tumor volume reached about 150-250 mm^3, 60 of the inoculated mice was selected based on tumor growth and randomly grouped into 6 treatment groups (10 mice per group) according to the following table.
The administrations were made with 27-gauge IV needle.
During the treatment period, the implanted tumors were measured by caliper twice per week. The tumors were measured for the maximum width (X) and length (Y) and the tumor volumes (V) were calculated using the formula: V=(X^2Y)/2. The differences in the tumor volume between the control and treatment groups were analyzed for significance using the unpaired two-tailed Student's t-test. P<0.05 was considered to be statistically significant. The animal body weights were also weighed and recorded twice per week.
The subject of data set [8] is human urinary bladder cancer cell line RT-112. The data set can be described thus: Cytotoxicity assay (CellTiter-Glo, 72 h), RT-112. Format: cell-based. The following applies: RT-112, 72 h, read-out: Cytotoxicity (IC50, nM) RT-112.
Description: as §1
The test system of data set [9] is human breast cancer cell line BT-474. Briefly: Cytotoxicity assay (CellTiter-Glo, 72 h), BT-474. Format: cell-based. The conditions noted are these: BT-474, 72 h, read-out: Cytotoxicity (IC50, nM) BT-474.
Description: as §1
The next data set is described as follows: in vivo. The following applies: female, SCID, mouse.
The mark [10] stands for this setting: Tissue Distribution Data for SDC-TRAP-0046, Time (h) 0.083.
Setting [11] is: Tissue Distribution Data for SDC-TRAP-0046, Time (h) 6.
Where [12] appears, read: Tissue Distribution Data for SDC-TRAP-0046, Time (h) 12.
Where [13] appears, read: Tissue Distribution Data for SDC-TRAP-0046, Time (h) 24.
[14] abbreviates: Tissue Distribution Data for SDC-TRAP-0046, Time (h) 48.
Setting [15] is: after SDC-TRAP-0046 50 mg/110 mL/kg IV, DRD, 6 h.
Setting [16] is: after SDC-TRAP-0046 50 mg/110 mL/kg IV, DRD, 12 h.
Where [17] appears, read: after SDC-TRAP-0046 50 mg/110 mL/kg IV, DRD, 24 h.
Where [18] appears, read: after SDC-TRAP-0046 50 mg/110 mL/kg IV, DRD, 48 h.
Setting [19] is: Tissue Distribution Data for SDC-TRAP-0171, Time (h) 0.083.
[20] abbreviates: Tissue Distribution Data for SDC-TRAP-0171, Time (h) 1.
Setting [21] is: Tissue Distribution Data for SDC-TRAP-0171, Time (h) 6.
Where [22] appears, read: Tissue Distribution Data for SDC-TRAP-0171, Time (h) 24.
The mark [23] stands for this setting: Tissue Distribution Data for SDC-TRAP-0171, Time (h) 48.

Description for in vivo: Using the 10 mM stock solutions of the SDC-TRAP molecule and its Hsp90i binding moiety and effector moiety in DMSO, spiking solutions were prepared at 0.025, 0.05, 0.1, 0.5, 1, 5, 10, 50, 100, 250, and 500 μM in DMSO. 5 μL of each spiking solution was added to a 96-deep well plate.
Quality control standards were prepared from 5 μL of 0.1, 1, and 10 μM calibration standard spiking solution added in triplicate into 96-deep well plate and adding 50 μL of matrix (plasma or homogenized tumor).
To prepare test samples, test plasma was diluted as needed using blank plasma.
Tumor samples were pulverized in liquid nitrogen, weighed, and homogenized in PBS at 5× volume to sample weight. 50 μL of unknown plasma or homogenized tumor sample was mixed with 5 μL of DMSO. The samples were extracted by precipitating calibration standards, QC standards, and unknown samples with 200 μL of internal standard solution. The samples were mixed by vortex at room temperature for approximately 1.5 minutes, then centrifuge at 2-8° C. 150 μL of supernatant was collected and 25 μL of water added. Samples were mixed and analyzed by LC-MS/MS.
Samples of plasma, heart and tumor were excised from a euthanized mouse, homogenized in PBS at 5 times tissue weight and diluted in 5 μL DMSO/50 μL sample. Prior to analysis, 55 μL samples and calibration standards were precipitated in 200 μL methanol in 96-well plates. Samples were mixed on a vortex mixer for 1.5 minutes at 1500 rpm at room temperature, then centrifuged at 4400 rpm for 10 minutes at 8° C. 150 μL of each supernatant was transferred to a well of a new 96-well plate, and 25 μL of water was added and mixed with the sample. […] For the analysis of samples from female SCID mice, a gradient of solvent A (water/0.1% formic acid) and B (acetonitrile/0.1% formic acid) was used as in Table 2 below.
Various SDC-TRAP molecules and appropriate controls were administered to mice and after various time points the plasma and tumor concentration of these molecules was determined.

In the case of `CCc1c2c(nc3ccc(OC(=O)N(C)CCN(C)C(=O)c4cc5cc(-n6c(O)nnc6-c6cc(C(C)C)c(O)cc6O)ccc5n4C)cc13)-c1cc3c(c(=O)n1C2)COC(=O)C3(O)CC` (stereo not drawn) [SDC-TRAP-0010], the pIC50 with HER2 [1] is < 5.30; in the data set with HER2 [2] it was < 5.30; in the data set with Human H3122 NSCLC cells, 6.63; with H 3211 NSLC cells (read-out: IC50, 72h-continuous, 7.5 × 10^3 cells/well, three replicate columns) it was 6.84 and 6.49 and 6.63.
As to `CCc1c2c(nc3ccc(OC(=O)N(C)CCOCCn4ccc5cc(-n6c(O)nnc6-c6cc(C(C)C)c(O)cc6O)ccc54)cc13)-c1cc3c(c(=O)n1C2)COC(=O)C3(O)CC` (stereo not drawn) [SDC-TRAP-0029, 4,11-diethyl-4-hydroxy-3,14-dioxo-3,4,12,14-tetrahydro-1H-pyrano[3′,4′:6,7]indolizino[1,2-b]quinolin-9-yl (2-(2-(5-(3-(2,4-dihydroxy-5-isopropylphenyl)-5-hydroxy-4H-1,2,4-triazol-4-yl)-1H-indol-1-yl)ethoxy)ethyl)(methyl)carbamate], the pIC50 in the data set with HER2 [1] is 5.80. In addition, in [3], the “Media (5 μM) % Remaining 19 h (37° C.)” value is 29%, the “Media (5 μM) % Remaining 1 h (37° C.)§” value is 43% and the “Media (5 μM) % Remaining 1 h (37° C.)*” value was determined as 46%. For the same molecule, the “Mass Retention” value in data set [4] is 84.0%. Besides, the pIC50 in the data set on HER2 [2] is 5.86. Also, in data set [5], the “% Remaining (1 h)” value came to 47.0%; the “% Remaining (1 h, 37° C.)” value was 47%; the “Mouse (10 μM) % Remaining 1 h (37° C.)§” value stood at 44%; the “Mouse (10 μM) % Remaining 1 h (37° C.)*” value was 47%. Besides, the pIC50 with Human H3122 NSCLC cells is 6.90. Moreover, the pIC50 with H 3211 NSLC cells (1 h, read-out: IC50, 1h-pulse/71h-compound free, 7.5 × 10^3 cells/well, two replicate columns) is < 5.52. Moreover, in the data set with H 3211 NSLC cells (read-out: IC50, 1h-pulse/71h-compound free, 7.5 × 10^3 cells/well, two replicate columns), the pIC50 was < 5.52.
On to `CCc1c2c(nc3ccc(OC(=O)N4CCN(Cc5ccc(-n6c(O)nnc6-c6cc(C(C)C)c(O)cc6O)cc5)CC4)cc13)-c1cc3c(c(=O)n1C2)COC(=O)C3(O)CC` (stereo not drawn) [SDC-TRAP-0046, 4,11-diethyl-4-hydroxy-3,14-dioxo-3,4,12,14-tetrahydro-1H-pyrano[3′,4′:6,7]indolizino[1,2-b]quinolin-9-yl 4-(4-(3-(2,4-dihydroxy-5-isopropylphenyl)-5-hydroxy-4H-1,2,4-triazol-4-yl)benzyl)piperazine-1-carboxylate], for which the IC50 (as a rule, the concentration that gives 50% inhibition) came to 489 nM in data set [6], 20 nM in data set [8] and 205 nM in data set [9]. Besides, the “antitumor activity in HCT-116 xenografts (FIG. 23)” value in data set [7] was “better activity in inhibiting the growth of HCT-116 cells in vivo than either positive control group”. Besides, the pIC50 in the data set on HER2 [1] and with HER2 [2] was 6.61 each time. Besides, in data set [3], the “Media (5 μM) % Remaining 19 h (37° C.)” value came to 37%. The “Media (5 μM) % Remaining 1 h (37° C.)§” value in data set [3] is 62%. Besides, the “Media (5 μM) % Remaining 1 h (37° C.)*” value in data set [3] was 65%. In addition, in [4], the “Mass Retention” value was 88.1%. The “Plasma Conc.” value under setting [10] stood at 360 µM; the “Plasma Conc.” value under setting [11] turned out to be 5.88 µM; the “Plasma Conc.” value under setting [12] worked out at 2.37 µM; the “Plasma Conc.” value under setting [13] is 0.0542 µM; the “Plasma Conc.” value under setting [14] was “BQL”; the “Plasma Conc.” value under setting [15] came to 5.88 µM. For the same molecule, the “Plasma Conc.” value is 2.37 µM under setting [16], 0.0542 µM under setting [17] and “BQL” under setting [18]. For the same molecule, the “Tumor Conc.” value was 6.94 nmol/g of tissue under setting [10]; 4.97 nmol/g of tissue under setting [11]; 5.21 nmol/g of tissue under setting [12]; 2.19 nmol/g of tissue under setting [13]; 0.188 nmol/g of tissue under setting [14]; 4.97 nmol/g of tissue under setting [15]. In addition, the “Tumor Conc.” value under setting [16] is reported as 5.21 nmol/g of tissue, the “Tumor Conc.” value under setting [17] was 2.19 nmol/g of tissue and the “Tumor Conc.” value under setting [18] is on record as 0.188 nmol/g of tissue. Besides, the “Tumor/Plasma Ratio” value is given as 0.0193 under setting [10]; 0.844 under setting [11]; 2.20 under setting [12]; 40.3 under setting [13]; 0.844 (after SDC-TRAP-0046 IV, 6 h); 2.20 (after SDC-TRAP-0046 IV, 12 h). Besides, the “Tumor/Plasma Ratio” value by setting is: (after SDC-TRAP-0046 IV, 24 h) 40.3; (after SDC-TRAP-0046 IV, […]) 0.0193. For the same molecule, the “% Remaining (1 h)” value in data set [5] worked out at 51.6%. The “% Remaining (1 h, 37° C.)” value in [5] is recorded as 52%. Moreover, in [5], the “Mouse (10 μM) % Remaining 1 h (37° C.)§” value worked out at 50%. In addition, in data set [5], the “Mouse (10 μM) % Remaining 1 h (37° C.)*” value came out at 52%.
In “in vivo”, `CC(C)c1cc(-c2nnc(O)n2-c2ccc(CN3CCN(C(=O)Oc4ccc(COC(=O)Nc5cccc6c5CN(C5CCC(=O)NC5=O)C6=O)cc4)CC3)c(F)c2)c(O)cc1O` (stereo not drawn) [SDC-TRAP-0171, 4-((((2-(2,6-dioxopiperidin-3-yl)-1-oxoisoindolin-4-yl)carbamoyl)oxy)methyl)phenyl-4-(4-(3-(2,4-dihydroxy-5-isopropylphenyl)-5-hydroxy-4H-1,2,4-triazol-4-yl)-2-fluorobenzyl)piperazine-1-carboxylate] yielded a Kp at 1 h of 0.0589. The molecule also came in with a Kp at 6 h in the data set “in vivo” of 1.59. Moreover, the Kp at 24 h in “in vivo” was 100. The Kp at […] in the data set “in vivo” is 0.0179. Moreover, the concentration at 1 h in the data set “in vivo” came out at 217 µM. For the same molecule, the concentration at 6 h in “in vivo” amounted to 4.51 µM. This molecule returned a concentration at 24 h in “in vivo” of 0.028 µM. In the data set “in vivo”, the concentration at 48 h is 0.241 µM. In “in vivo”, this molecule displayed a concentration at […] of 918 µM. The IC50 was found to be 275 nM in data set [6], 20 nM in data set [8] and 58 nM in [9]. Also, the “Plasma Conc.” value was 618 µM under setting [19]; 32.2 µM under setting [20]; 1.21 µM under setting [21]; 0.00162 µM under setting [22]; “BQL” under setting [23]. The “Tumor Conc.” value reads like this: under setting [19], 0.083 nmol/g of tissue; under setting [20], 1 nmol/g of tissue; under setting [21], 6 nmol/g of tissue; under setting [22], 24 nmol/g of tissue; under setting [23], 48 nmol/g of tissue; (Tissue Distribution Data for SDC-TRAP-0178, Time (h) 0.083) 16.4 nmol/g of tissue. Also, the “Tumor Conc.” value (Tissue Distribution Data for SDC-TRAP-0178, Time (h) 1) is on record as 12.8 nmol/g of tissue; the “Tumor Conc.” value (Tissue Distribution Data for SDC-TRAP-0178, Time (h) 6) is 7.17 nmol/g of tissue; the “Tumor Conc.” value (Tissue Distribution Data for SDC-TRAP-0178, Time (h) 24) is recorded as 2.81 nmol/g of tissue; the “Tumor Conc.” value (Tissue Distribution Data for SDC-TRAP-0178, Time (h) 48) is given as 1.01 nmol/g of tissue. Also, the “Tumor/Plasma Ratio” value reads like this: under setting [19], 0.0164; under setting [20], 0.249; under setting [21], 3.10; under setting [22], 407. The pIC50 with HER2 [2] is 6.70. Moreover, the “% Remaining (1 h)” value in [5] was found to be 17.7%.

These data come from patent US10828315B2 (Madrigal Pharmaceuticals, Inc., priority 2013, dated 2020).
